Measurements: patent US11857519B2, “Compounds and methods for the targeted degradation of enhancer of zeste homolog 2 polypeptide” (Arvinas Operations, Inc., priority 2016, dated 2024)

These molecules were tested against T1, EZH2 (Homo sapiens, UniProt Q15910) (assay: Cellular assay of target protein degradation (VCaP cells, ELISA)). Settings: 4 hours, protein degradation range at indicated concentration (relative to DMSO control).
T1 construct: Protocol of the Cellular Assay of Target Protein Degradation (VCaP Cells, ELISA); endogenous in cells; host or cells: VCaP cells
Type: cell-based
Procedure, shortened: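 VCaP cells grown ≥3 days in RPMI with 5% CSS, then dosed with compounds in 0.1% DMSO for 4 h. Lysates analysed by sandwich ELISA for EZH2 with TMB readout at 450 nm, 562 nm used for background subtraction.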

T1 sequence (Q15910 whole entry): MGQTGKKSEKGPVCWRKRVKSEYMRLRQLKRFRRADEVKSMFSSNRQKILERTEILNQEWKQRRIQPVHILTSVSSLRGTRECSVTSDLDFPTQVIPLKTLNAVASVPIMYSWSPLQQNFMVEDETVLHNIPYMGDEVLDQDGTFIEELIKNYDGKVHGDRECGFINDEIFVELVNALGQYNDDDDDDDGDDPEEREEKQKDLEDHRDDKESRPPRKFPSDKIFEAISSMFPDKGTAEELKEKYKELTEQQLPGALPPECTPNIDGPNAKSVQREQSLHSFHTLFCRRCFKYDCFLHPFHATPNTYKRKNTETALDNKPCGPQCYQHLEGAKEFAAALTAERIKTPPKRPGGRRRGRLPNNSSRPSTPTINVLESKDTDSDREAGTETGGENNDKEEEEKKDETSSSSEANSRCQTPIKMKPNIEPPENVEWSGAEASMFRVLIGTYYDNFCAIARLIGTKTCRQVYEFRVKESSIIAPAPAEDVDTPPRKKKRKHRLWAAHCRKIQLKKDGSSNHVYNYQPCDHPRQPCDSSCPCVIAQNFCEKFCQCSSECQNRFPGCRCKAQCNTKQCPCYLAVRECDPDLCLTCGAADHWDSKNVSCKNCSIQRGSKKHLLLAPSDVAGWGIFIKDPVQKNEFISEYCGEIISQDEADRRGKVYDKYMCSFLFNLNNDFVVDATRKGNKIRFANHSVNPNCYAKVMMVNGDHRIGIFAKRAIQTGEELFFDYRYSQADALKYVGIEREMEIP
T1 sequence (O75530 whole entry partner): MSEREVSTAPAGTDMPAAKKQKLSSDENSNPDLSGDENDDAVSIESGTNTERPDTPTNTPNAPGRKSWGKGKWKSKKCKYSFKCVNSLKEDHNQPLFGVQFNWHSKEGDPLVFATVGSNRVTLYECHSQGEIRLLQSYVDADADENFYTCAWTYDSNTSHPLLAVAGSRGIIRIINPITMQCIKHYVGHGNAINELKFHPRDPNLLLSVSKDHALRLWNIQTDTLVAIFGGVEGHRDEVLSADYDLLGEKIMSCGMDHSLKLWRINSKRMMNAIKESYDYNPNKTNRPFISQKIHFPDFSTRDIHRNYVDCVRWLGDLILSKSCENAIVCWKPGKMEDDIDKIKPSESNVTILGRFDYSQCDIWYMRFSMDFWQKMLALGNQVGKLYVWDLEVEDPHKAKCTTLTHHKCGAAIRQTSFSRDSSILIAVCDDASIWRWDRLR
T1 sequence (Q15022 whole entry partner): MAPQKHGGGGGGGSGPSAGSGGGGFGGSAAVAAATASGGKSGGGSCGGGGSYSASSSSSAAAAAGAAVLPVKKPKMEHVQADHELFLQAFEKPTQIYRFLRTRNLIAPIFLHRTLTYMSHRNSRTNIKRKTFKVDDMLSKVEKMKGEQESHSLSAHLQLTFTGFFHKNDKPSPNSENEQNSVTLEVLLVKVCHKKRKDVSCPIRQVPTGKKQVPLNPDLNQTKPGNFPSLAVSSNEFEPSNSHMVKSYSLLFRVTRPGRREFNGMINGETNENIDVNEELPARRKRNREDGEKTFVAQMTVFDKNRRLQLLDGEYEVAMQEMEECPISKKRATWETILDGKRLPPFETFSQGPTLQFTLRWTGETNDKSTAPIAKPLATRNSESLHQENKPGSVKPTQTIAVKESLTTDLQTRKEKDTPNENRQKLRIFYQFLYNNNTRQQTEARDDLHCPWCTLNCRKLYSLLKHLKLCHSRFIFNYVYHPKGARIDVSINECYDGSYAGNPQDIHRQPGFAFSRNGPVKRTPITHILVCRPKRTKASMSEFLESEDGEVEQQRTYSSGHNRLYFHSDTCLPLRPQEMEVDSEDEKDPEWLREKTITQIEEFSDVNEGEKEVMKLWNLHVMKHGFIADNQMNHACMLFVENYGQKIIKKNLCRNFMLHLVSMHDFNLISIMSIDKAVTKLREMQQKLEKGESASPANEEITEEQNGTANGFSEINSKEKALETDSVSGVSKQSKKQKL

| percent target protein degradation class | Structure (SMILES) |
| --- | --- |
| A (A = degradation more than 60%) | CCN(c1cc(-c2ccc(OCCCOCC(=O)N[C@H](C(=O)N3C[C@H](O)C[C@H]3C(=O)NCc3ccc(-c4scnc4C)cc3)C(C)(C)C)cc2)cc(C(=O)NCc2c(C)cc(C)[nH]c2=O)c1C)C1CCOCC1 [Compound 41, (2S,4R)-1-[(2S)-2-(2-{3-[4-(3-{[(4,6-dimethyl-2-oxo-1,2-dihydropyridin-3-yl)methyl]carbamoyl}-5-[ethyl(oxan-4-yl)amino]-4-methylphenyl)phenoxy]propoxy}acetamido)-3,3-dimethylbutanoyl]-4-hydroxy-N-{[4-(4-methyl-1,3-thiazol-5-yl)phenyl]methyl}pyrrolidine-2-carboxamide] |
| A (A = degradation more than 60%) | CCN(c1cc(-c2ccc(OCCOCCOCC(=O)N[C@H](C(=O)N3C[C@H](O)C[C@H]3C(=O)N[C@@H](C)c3ccc(-c4scnc4C)cc3)C(C)(C)C)cc2)cc(C(=O)NCc2c(C)cc(C)[nH]c2=O)c1C)C1CCOCC1 [Compound 43, (2S,4R)-1-[(2S)-2-[2-(2-{2-[4-(3-{[(4,6-dimethyl-2-oxo-1,2-dihydropyridin-3-yl)methyl]carbamoyl}-5-[ethyl(oxan-4-yl)amino]-4-methylphenyl)phenoxy]ethoxy}ethoxy)acetamido]-3,3-dimethylbutanoyl]-4-hydroxy-N-[(1S)-1-[4-(4-methyl-1,3-thiazol-5-yl)phenyl]ethyl]pyrrolidine-2-carboxamide] |
| B (B = degradation between 30% and 60%) | CCN(c1cc(-c2ccc(CCCOCCCCC(=O)N[C@H](C(=O)N3C[C@H](O)C[C@H]3C(=O)NCc3ccc(-c4scnc4C)cc3)C(C)(C)C)cc2)cc(C(=O)NCc2c(C)cc(C)[nH]c2=O)c1C)C1CCOCC1 [Compound 44, (2S,4R)-1-[(2S)-2-(5-{3-[4-(3-{[(4,6-dimethyl-2-oxo-1,2-dihydropyridin-3-yl)methyl]carbamoyl}-5-[ethyl(oxan-4-yl)amino]-4-methylphenyl)phenyl]propoxy}pentanamido)-3,3-dimethylbutanoyl]-4-hydroxy-N-{[4-(4-methyl-1,3-thiazol-5-yl)phenyl]methyl}pyrrolidine-2-carboxamide] |
| B (B = degradation between 30% and 60%) | CCN(c1cc(-c2ccc(OCCCOCCOCC(=O)N[C@H](C(=O)N3C[C@H](O)C[C@H]3C(=O)NCc3ccc(-c4scnc4C)cc3)C(C)(C)C)cc2)cc(C(=O)NCc2c(C)cc(C)[nH]c2=O)c1C)C1CCOCC1 [Compound 45, (2S,4R)-1-[(2S)-2-[2-(2-{3-[4-(3-{[(4,6-dimethyl-2-oxo-1,2-dihydropyridin-3-yl)methyl]carbamoyl}-5-[ethyl(oxan-4-yl)amino]-4-methylphenyl)phenoxy]propoxy}ethoxy)acetamido]-3,3-dimethylbutanoyl]-4-hydroxy-N-{[4-(4-methyl-1,3-thiazol-5-yl)phenyl]methyl}pyrrolidine-2-carboxamide] |
| A (A = degradation more than 60%) | CCN(c1cc(-c2ccc(OCCCCCOCC(=O)N[C@H](C(=O)N3C[C@H](O)C[C@H]3C(=O)NCc3ccc(-c4scnc4C)cc3)C(C)(C)C)cc2)cc(C(=O)NCc2c(C)cc(C)[nH]c2=O)c1C)C1CCOCC1 [Compound 46, (2S,4R)-1-[(2S)-2-[2-({5-[4-(3-{[(4,6-dimethyl-2-oxo-1,2-dihydropyridin-3-yl)methyl]carbamoyl}-5-[ethyl(oxan-4-yl)amino]-4-methylphenyl)phenoxy]pentyl}oxy)acetamido]-3,3-dimethylbutanoyl]-4-hydroxy-N-{[4-(4-methyl-1,3-thiazol-5-yl)phenyl]methyl}pyrrolidine-2-carboxamide] |

Second part, the molecule before the results:

| Structure (SMILES) | percent target protein degradation class |
| --- | --- |
| CCN(c1cc(-c2ccc(OCCOCCOCCNc3cccc4c3C(=O)N(C3CCC(=O)NC3=O)C4=O)cc2)cc(C(=O)NCc2c(C)cc(C)[nH]c2=O)c1C)C1CCOCC1 (stereo not shown) [Compound 33, N-[(4,6-dimethyl-2-oxo-1,2-dihydropyridin-3-yl)methyl]-5-(4-{2-[2-(2-{[2-(2,6-dioxopiperidin-3-yl)-1,3-dioxo-2,3-dihydro-1H-isoindol-4-yl]amino}ethoxy)ethoxy]ethoxy}phenyl)-3-[ethyl(oxan-4-yl)amino]-2-methylbenzamide] | B (B = degradation between 30% and 60%) |
| CCN(c1cc(-c2ccc(OCCOCCNc3cccc4c3C(=O)N(C3CCC(=O)NC3=O)C4=O)cc2)cc(C(=O)NCc2c(C)cc(C)[nH]c2=O)c1C)C1CCOCC1 (stereo not shown) [Compound 34, N-[(4,6-dimethyl-2-oxo-1,2-dihydropyridin-3-yl)methyl]-5-{4-[2-(2-{[2-(2,6-dioxopiperidin-3-yl)-1,3-dioxo-2,3-dihydro-1H-isoindol-4-yl]amino}ethoxy)ethoxy]phenyl}-3-[ethyl(oxan-4-yl)amino]-2-methylbenzamide] | B (B = degradation between 30% and 60%) |
| CCN(c1cc(-c2ccc(OCCOCCOCCOCCOCCOc3cc(-c4scnc4C)ccc3CNC(=O)[C@@H]3C[C@@H](O)CN3C(=O)[C@H](C(C)C)N3Cc4ccccc4C3=O)cc2)cc(C(=O)NCc2c(C)cc(C)[nH]c2=O)c1C)C1CCOCC1 [Compound 35, (2S,4R)-N-{[2-({1-[4-(3-{[(4,6-dimethyl-2-oxo-1,2-dihydropyridin-3-yl)methyl]carbamoyl}-5-[ethyl(oxan-4-yl)amino]-4-methylphenyl)phenyl]-1,4,7,10,13-pentaoxapentadecan-15-yl}oxy)-4-(4-methyl-1,3-thiazol-5-yl)phenyl]methyl}-4-hydroxy-1-[(2S)-3-methyl-2-(1-oxo-2,3-dihydro-1H-isoindol-2-yl)butanoyl]pyrrolidine-2-carboxamide] | B (B = degradation between 30% and 60%) |
| CCN(c1cc(-c2ccc(OCCOCCOCCOCCOc3cc(-c4scnc4C)ccc3CNC(=O)[C@@H]3C[C@@H](O)CN3C(=O)[C@H](C(C)C)N3Cc4ccccc4C3=O)cc2)cc(C(=O)NCc2c(C)cc(C)[nH]c2=O)c1C)C1CCOCC1 [Compound 36, (2S,4R)-N-{[2-({1-[4-(3-{[(4,6-dimethyl-2-oxo-1,2-dihydropyridin-3-yl)methyl]carbamoyl}-5-[ethyl(oxan-4-yl)amino]-4-methylphenyl)phenyl]-1,4,7,10-tetraoxadodecan-12-yl}oxy)-4-(4-methyl-1,3-thiazol-5-yl)phenyl]methyl}-4-hydroxy-1-[(2S)-3-methyl-2-(1-oxo-2,3-dihydro-1H-isoindol-2-yl)butanoyl]pyrrolidine-2-carboxamide] | B (B = degradation between 30% and 60%) |
| CCN(c1cc(-c2ccc(OCCOCCOCCOc3cc(-c4scnc4C)ccc3CNC(=O)[C@@H]3C[C@@H](O)CN3C(=O)[C@H](C(C)C)N3Cc4ccccc4C3=O)cc2)cc(C(=O)NCc2c(C)cc(C)[nH]c2=O)c1C)C1CCOCC1 [Compound 37, (2S,4R)-N-({2-[2-(2-{2-[4(3-{[(4,6-dimethyl-2-oxo-1,2-dihydropyridin-3-yl)methyl]carbamoyl}-5-[ethyl(oxan-4-yl)amino]-4-methylphenyl)phenoxy]ethoxy}ethoxy)ethoxy]-4-(4-methyl-1,3-thiazol-5-yl)phenyl}methyl)-4-hydroxy-1-[(2S)-3-methyl-2-(1-oxo-2,3-dihydro-1H-isoindol-2-yl)butanoyl]pyrrolidine-2-carboxamide] | A (A = degradation more than 60%) |
| CCN(c1cc(-c2ccc(OCCOCCOc3cc(-c4scnc4C)ccc3CNC(=O)[C@@H]3C[C@@H](O)CN3C(=O)[C@H](C(C)C)N3Cc4ccccc4C3=O)cc2)cc(C(=O)NCc2c(C)cc(C)[nH]c2=O)c1C)C1CCOCC1 [Compound 38, (2S,4R)-N-{[2-(2-{2-[4-(3-{[(4,6-dimethyl-2-oxo-1,2-dihydropyridin-3-yl)methyl]carbamoyl}-5-[ethyl(oxan-4-yl)amino]-4-methylphenyl)phenoxy]ethoxy}ethoxy)-4-(4-methyl-1,3-thiazol-5-yl)phenyl]methyl}-4-hydroxy-1-[(2S)-3-methyl-2-(1-oxo-2,3-dihydro-1H-isoindol-2-yl)butanoyl]pyrrolidine-2-carboxamide] | B (B = degradation between 30% and 60%) |
| CCN(c1cc(-c2ccc(OCCCOCCCOCCCOc3cc(-c4scnc4C)ccc3CNC(=O)[C@@H]3C[C@@H](O)CN3C(=O)[C@H](C(C)C)N3Cc4ccccc4C3=O)cc2)cc(C(=O)NCc2c(C)cc(C)[nH]c2=O)c1C)C1CCOCC1 [Compound 39, (2S,4R)-N-({2-[3-(3-{3-[4-(3-{[(4,6-dimethyl-2-oxo-1,2-dihydropyridin-3-yl)methyl]carbamoyl}-5-[ethyl(oxan-4-yl)amino]-4-methylphenyl)phenoxy]propoxy}propoxy)propoxy]-4-(4-methyl-1,3-thiazol-5-yl)phenyl}methyl)-4-hydroxy-1-[(2S)-3-methyl-2-(1-oxo-2,3-dihydro-1H-isoindol-2-yl)butanoyl]pyrrolidine-2-carboxamide] | B (B = degradation between 30% and 60%) |
| CCN(c1cc(-c2ccc(OCCCCOCCCOc3cc(-c4scnc4C)ccc3CNC(=O)[C@@H]3C[C@@H](O)CN3C(=O)[C@H](C(C)C)N3Cc4ccccc4C3=O)cc2)cc(C(=O)NCc2c(C)cc(C)[nH]c2=O)c1C)C1CCOCC1 [Compound 40, (2S,4R)-N-{[2-(3-{4-[4-(3-{[(4,6-dimethyl-2-oxo-1,2-dihydropyridin-3-yl)methyl]carbamoyl}-5-[ethyl(oxan-4-yl)amino]-4-methylphenyl)phenoxy]butoxy}propoxy)-4-(4-methyl-1,3-thiazol-5-yl)phenyl]methyl}-4-hydroxy-1-[(2S)-3-methyl-2-(1-oxo-2,3-dihydro-1H-isoindol-2-yl)butanoyl]pyrrolidine-2-carboxamide] | B (B = degradation between 30% and 60%) |
